Assay results from DBAASP.
Values after ≈ are worked out from the molar mass of the structure shown.

Key:
Assay in all cases: ≥ marks a high value that may be exact or a test limit, other limits are often not marked, values filed in µg/mL are converted to µM
[1] = system: Escherichia coli ATCC 25922
[2] = system: Pseudomonas aeruginosa ATCC 9027
[3] = system: Staphylococcus aureus ATCC 25923
[4] = system: Klebsiella pneumoniae ATCC 700603
[5] = system: Bacillus subtilis ATCC 23857
[6] = system: Staphylococcus epidermidis
Escherichia coli = system: Escherichia coli
Pseudomonas aeruginosa = system: Pseudomonas aeruginosa
Salmonella typhimurium = system: Salmonella typhimurium
Micrococcus luteus = system: Micrococcus luteus
Staphylococcus aureus = system: Staphylococcus aureus
Shigella dysenteriae = system: Shigella dysenteriae
Proteus mirabilis = system: Proteus mirabilis
Bacillus subtilis = system: Bacillus subtilis
Klebsiella pneumoniae = system: Klebsiella pneumoniae
[7] = system: Staphylococcus aureus ATCC 2592
[8] = system: Candida albicans ATCC 2002
[9] = system: Bacillus subtilis ATCC 6633
Acinetobacter baumannii = system: Acinetobacter baumannii
[10] = system: Klebsiella pneumoniae ATCC 13883

Structure (SMILES) | MIC [1] [µM] | MIC [6] [µM] | MIC (Escherichia coli) [µM] | MIC (Pseudomonas aeruginosa) [µM] | MIC (Salmonella typhimurium) [µM] | MIC (Micrococcus luteus) [µM] | MIC (Staphylococcus aureus) [µM] | MIC (Shigella dysenteriae) [µM] | MIC (Proteus mirabilis) [µM] | MIC (Bacillus subtilis) [µM] | MIC (Klebsiella pneumoniae) [µM] | MIC [7] [µM] | further results
CC[C@H](C)[C@H](NC(=O)[C@H](CCCCN)NC(=O)[C@H](CCCCN)NC(=O)[C@H](C)NC(=O)[C@@H](NC(=O)[C@H](C)NC(=O)[C@H](CC(C)C)NC(=O)[C@H](CC(C)C)NC(=O)[C@H](CCCCN)NC(=O)[C@H](CCCCN)NC(=O)[C@H](CC(C)C)NC(=O)[C@H](CC(N)=O)NC(=O)[C@@H](N)CC(C)C)C(C)C)C(N)=O [LNLKKLLAVAKKI] | 16 (≈ 23.2 µg/mL) |  |  |  |  |  |  |  |  |  |  |  | MIC [2]: 16 µM (≈ 23.2 µg/mL); MIC [3]: 128 µM (≈ 186 µg/mL); MIC [4]: 64 µM (≈ 92.9 µg/mL); MIC [5]: 8 µM (≈ 11.6 µg/mL)
CC(C)C[C@H](NC(=O)[C@H](C)NC(=O)CNC(=O)[C@H](CC(C)C)NC(=O)[C@@H](N)Cc1ccccc1)C(=O)N[C@@H](Cc1ccccc1)C(=O)N[C@@H](Cc1c[nH]c2ccccc12)C(=O)N[C@H](C(=O)N[C@@H](C)C(=O)N[C@@H](CO)C(=O)N[C@@H](CCCCN)C(=O)O)C(C)C [FLGALFWVASK] |  | ≥ 161 | > 161 | > 161 | ≥ 161 | ≥ 161 | > 161 | ≥ 161 | ≥ 161 | ≥ 161 | > 161 |  | 
CC(C)C[C@H](NC(=O)[C@@H](N)Cc1ccccc1)C(=O)NCC(=O)N[C@@H](C)C(=O)N[C@@H](Cc1c[nH]c2ccccc12)C(=O)N[C@@H](Cc1ccccc1)C(=O)N[C@@H](CCCCN)C(=O)N[C@H](C(=O)N[C@@H](C)C(=O)N[C@@H](CO)C(=O)N[C@@H](CCCCN)C(=O)O)C(C)C [FLGAWFKVASK] |  | ≥ 160 | > 160 | > 160 | ≥ 160 | ≥ 160 | > 160 | ≥ 160 | ≥ 160 | ≥ 160 | > 160 |  | 
CC(C)C[C@H](NC(=O)[C@@H](NC(=O)[C@H](CCCCN)NC(=O)[C@H](CO)NC(=O)[C@H](C)NC(=O)[C@@H](NC(=O)[C@H](CCCCN)NC(=O)[C@H](Cc1ccccc1)NC(=O)[C@H](CC(C)C)NC(=O)[C@H](C)NC(=O)CNC(=O)[C@H](CC(C)C)NC(=O)[C@H](C)N)C(C)C)C(C)C)C(=O)O [ALGALFKVASKVL] |  | ≥ 38 | 38 (≈ 50 µg/mL) | 152 (≈ 200 µg/mL) | ≥ 152 | ≥ 152 | 9.49 (≈ 12.5 µg/mL) | ≥ 152 | ≥ 152 | 19 (≈ 25 µg/mL) | 76 (≈ 100 µg/mL) |  | 
CC(C)C[C@H](NC(=O)[C@H](C)NC(=O)CNC(=O)[C@H](Cc1c[nH]c2ccccc12)NC(=O)[C@@H](N)Cc1ccccc1)C(=O)N[C@@H](Cc1ccccc1)C(=O)N[C@@H](CCCCN)C(=O)N[C@H](C(=O)N[C@@H](C)C(=O)N[C@@H](CO)C(=O)N[C@@H](CCCCN)C(=O)O)C(C)C [FWGALFKVASK] |  | ≥ 79.8 | 79.8 (≈ 100 µg/mL) | > 160 | ≥ 160 | ≥ 79.8 | 19.9 (≈ 25 µg/mL) | ≥ 160 | ≥ 160 | ≥ 39.9 | 79.8 (≈ 100 µg/mL) |  | 
CC[C@H](C)[C@@H]1NC(=O)[C@H](CO)NC(=O)[C@H](CCCCN)NC(=O)[C@H]([C@@H](C)O)NC(=O)[C@H](Cc2c[nH]c3ccccc23)NC(=O)[C@@H](NC(=O)CNC(=O)[C@H](CCCCN)NC(=O)[C@H](CC(C)C)NC(=O)[C@H](C)NC(=O)[C@H](C)N)CSSC[C@@H](C(=O)N[C@@H](Cc2ccccc2)C(=O)NCC(=O)N[C@@H](Cc2ccccc2)C(=O)O)NC(=O)[C@@H]2CCCN2C(=O)[C@H](CCCCN)NC(=O)[C@@H]2CCCN2C(=O)[C@@H]2CCCN2C1=O [AALKGCWTKSIPPKPCFGF] | 1.38 (≈ 2.84 µg/mL) |  |  |  |  |  |  |  |  | 1.19 (≈ 2.44 µg/mL) |  | 1.03 (≈ 2.12 µg/mL) | MIC [8]: 2.32 µM (≈ 4.76 µg/mL)
CC[C@H](C)[C@H](NC(=O)[C@H](CCCCN)NC(=O)[C@@H]1CCCN1C(=O)[C@H](Cc1ccccc1)NC(=O)[C@@H](NC(=O)[C@H](CO)NC(=O)CNC(=O)[C@H](CC(C)C)NC(=O)[C@H](C)NC(=O)[C@H](CCCCN)NC(=O)[C@H](CC(C)C)NC(=O)[C@H](C)NC(=O)[C@@H](NC(=O)[C@@H]1CCCN1C(=O)[C@H](CC(C)C)NC(=O)[C@@H](N)Cc1ccccc1)[C@@H](C)CC)[C@@H](C)CC)C(=O)N[C@@H](CC(C)C)C(N)=O [FLPIALKALGSIFPKIL] |  |  |  |  |  |  |  |  |  |  |  | 6.79 (≈ 12.5 µg/mL) | MIC [9]: 27.2 µM (≈ 50 µg/mL)
CC[C@H](C)[C@H](NC(=O)[C@H](CC(C)C)NC(=O)[C@H](CCC(N)=O)NC(=O)[C@@H](NC(=O)[C@H](CC(C)C)NC(=O)[C@H](CCCN=C(N)N)NC(=O)[C@H](CCCN=C(N)N)NC(=O)[C@@H](NC(=O)[C@H](C)NC(=O)[C@H](CCCCN)NC(=O)[C@H](CCCN=C(N)N)NC(=O)[C@H](CC(C)C)NC(=O)[C@@H](NC(=O)[C@H](C)NC(=O)[C@@H](NC(=O)[C@H](C)N)[C@@H](C)O)[C@@H](C)CC)[C@@H](C)O)C(C)C)C(=O)O [ATAILRKATRRLVQLI] | > 25 |  |  |  |  |  |  |  |  |  |  |  | MIC [2]: > 25 µM; MIC [3]: > 25 µM; MIC [4]: > 25 µM; MIC (Acinetobacter baumannii): 25 µM (≈ 45.6 µg/mL)
CC(C)C[C@H](NC(=O)[C@H](C)NC(=O)CNC(=O)[C@H](CC(C)C)NC(=O)[C@@H](N)Cc1c[nH]c2ccccc12)C(=O)N[C@@H](Cc1ccccc1)C(=O)N[C@@H](CCCCN)C(=O)N[C@H](C(=O)N[C@@H](C)C(=O)N[C@@H](CO)C(=O)N[C@@H](CCCCN)C(=O)O)C(C)C [WLGALFKVASK] |  | ≥ 164 | 164 (≈ 200 µg/mL) | > 164 | ≥ 164 | ≥ 82 | 82 (≈ 100 µg/mL) | ≥ 164 | ≥ 164 | ≥ 82 | > 164 |  | 
CC[C@H](C)[C@H](NC(=O)CNC(=O)[C@H](CO)NC(=O)[C@H](CC(C)C)NC(=O)[C@@H](N)Cc1ccccc1)C(=O)N[C@@H](CC(C)C)C(=O)N[C@@H](CCCCN)C(=O)N[C@@H](CC(C)C)C(=O)N[C@@H](C)C(=O)N[C@@H](Cc1ccccc1)C(=O)N[C@@H](CCCCN)C(=O)N[C@H](C(=O)N1CCC[C@H]1C(=O)N[C@@H](CO)C(=O)N[C@H](C(=O)N[C@@H](CC(C)C)C(=O)N[C@H]1CSSC[C@@H](C(=O)O)NC(=O)[C@H](CC(N)=O)NC(=O)[C@H](CCCCN)NC(=O)[C@H](CC(C)C)NC(=O)[C@H](C(C)C)NC(=O)[C@H](C)NC1=O)C(C)C)[C@@H](C)CC [FLSGILKLAFKIPSVLCAVLKNC] | 10.1 (≈ 25 µg/mL) |  |  |  |  |  |  |  |  | 20.2 (≈ 50 µg/mL) |  | 5.04 (≈ 12.5 µg/mL) | MIC [8]: 10.1 µM (≈ 25 µg/mL)
CC[C@H](C)[C@H](NC(=O)[C@@H]1CCCN1C(=O)[C@H](CC(C)C)NC(=O)[C@@H](N)Cc1ccccc1)C(=O)N[C@H](C(=O)NCC(=O)N[C@@H](CCCCN)C(=O)N[C@@H](CC(C)C)C(=O)N[C@@H](CC(C)C)C(=O)N[C@@H](CO)C(=O)NCC(=O)N[C@@H](CC(C)C)C(=O)N[C@@H](CO)C(=O)NCC(=O)N[C@@H](CC(C)C)C(=O)N[C@@H](CC(C)C)C(N)=O)C(C)C [FLPIVGKLLSGLSGLL] | 1.84 (≈ 3 µg/mL) |  |  |  |  |  |  | 0.922 (≈ 1.5 µg/mL) |  |  |  | 1.23 (≈ 2 µg/mL) | MIC [8]: 4 µM (≈ 6.5 µg/mL)
CC[C@H](C)[C@H](N)C(=O)N[C@@H](CC(N)=O)C(=O)N[C@@H](CC(C)C)C(=O)N[C@@H](CCCCN)C(=O)N[C@H](C(=O)N[C@@H](CC(C)C)C(=O)N[C@@H](C)C(=O)N[C@@H](CCCN=C(N)N)C(=O)N[C@@H](CC(C)C)C(=O)N[C@@H](C)C(=O)N[C@@H](CCCCN)C(=O)N[C@@H](CCCCN)C(=O)N[C@H](C(=O)N[C@@H](CC(C)C)C(N)=O)[C@@H](C)CC)[C@@H](C)CC [INLKILARLAKKIL] |  |  |  |  |  |  | 3 (≈ 4.82 µg/mL) |  |  |  | 3 (≈ 4.82 µg/mL) |  | MIC [10]: 3 µM (≈ 4.82 µg/mL); MIC [3]: 6.25 µM (≈ 10 µg/mL)
